Experimental data as given in the supplement of paper PMC11451515.

System: SEM cells
Assay: cell viability relative to DMSO control; higher = less cytotoxic
Details: 48 h
Procedure, shortened: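 Library compounds in DMSO were pin-dosed in an 11-point threefold series (47 μM to 0.79 nM) onto leukemia cells in 1536-well plates (5 μl). Plates held 500 cells/well of NOMO1 or SEM or 1000 cells/well of P12-Ichikawa, each adapted for at least four passages in each medium. Luminescence was read with CellTiter-Glo One after 48 h at 37°C. Viability means the per-plate percentage relative to DMSO wells, using cell-free wells as background.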

Question: Which results are given for `CCN(CC)CCCCNc1ncc2c(n1)N(C)C(=O)N(c1c(Cl)c(OC)cc(OC)c1Cl)C2`?
Answer: cell viability (HPLM + 10% dialyzed FBS, 0.000781 µM): 99.2%; cell viability (HPLM + 10% dialyzed FBS, 0.00234 µM): 110%; cell viability (HPLM + 10% dialyzed FBS, 0.00702 µM): 110%; cell viability (HPLM + 10% dialyzed FBS, 0.0211 µM): 111%; cell viability (HPLM + 10% dialyzed FBS, 0.0632 µM): 119%; cell viability (HPLM + 10% dialyzed FBS, 0.19 µM): 111%; cell viability (HPLM + 10% dialyzed FBS, 0.569 µM): 117%; cell viability (HPLM + 10% dialyzed FBS, 1.71 µM): 114%; cell viability (HPLM + 10% dialyzed FBS, 5.12 µM): 99.2%; cell viability (HPLM + 10% dialyzed FBS, 15.4 µM): 48.3%; cell viability (HPLM + 10% dialyzed FBS, 46.1 µM): 11.9%; cell viability (RPMI 5 mM glucose + 10% FBS, 0.000781 µM): 109%; cell viability (RPMI 5 mM glucose + 10% FBS, 0.00234 µM): 112%; cell viability (RPMI 5 mM glucose + 10% FBS, 0.00702 µM): 117%; cell viability (RPMI 5 mM glucose + 10% FBS, 0.0211 µM): 125%; cell viability (RPMI 5 mM glucose + 10% FBS, 0.0632 µM): 119%; cell viability (RPMI 5 mM glucose + 10% FBS, 0.19 µM): 106%; cell viability (RPMI 5 mM glucose + 10% FBS, 0.569 µM): 126%; cell viability (RPMI 5 mM glucose + 10% FBS, 1.71 µM): 109%; cell viability (RPMI 5 mM glucose + 10% FBS, 5.12 µM): 104%; cell viability (RPMI 5 mM glucose + 10% FBS, 15.4 µM): 44.4%; cell viability (RPMI 5 mM glucose + 10% FBS, 46.1 µM): 13.2%; cell viability (RPMI 5 mM glucose + 10% dialyzed FBS, 0.000781 µM): 125%; cell viability (RPMI 5 mM glucose + 10% dialyzed FBS, 0.00234 µM): 118%; cell viability (RPMI 5 mM glucose + 10% dialyzed FBS, 0.00702 µM): 107%; cell viability (RPMI 5 mM glucose + 10% dialyzed FBS, 0.0211 µM): 114%; cell viability (RPMI 5 mM glucose + 10% dialyzed FBS, 0.0632 µM): 116%; cell viability (RPMI 5 mM glucose + 10% dialyzed FBS, 0.19 µM): 116%; cell viability (RPMI 5 mM glucose + 10% dialyzed FBS, 0.569 µM): 129%; cell viability (RPMI 5 mM glucose + 10% dialyzed FBS, 1.71 µM): 104%; cell viability (RPMI 5 mM glucose + 10% dialyzed FBS, 5.12 µM): 101%; cell viability (RPMI 5 mM glucose + 10% dialyzed FBS, 15.4 µM): 52.3%; cell viability (RPMI 5 mM glucose + 10% dialyzed FBS, 46.1 µM): 16.9%
